Results published in patent US11130769B2 (Prelude Therapeutics Incorporated, priority 2018, dated 2021).
Where two headings read alike, the source gives them in different places.

Key:
MCL-1 = MCL-1 (Homo sapiens (Human), UniProt Q07820); test: Cell free Mcl-1:Bim affinity assay (fluorescence polarization competition); assay type: binding; details: 15 nM MCL-1, 5 nM FITC-Bim, 1 hour at room temperature, read-out: BIM_Ki
Method in brief: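 Fluorescence polarization competition: 10-point 3-fold compound dilutions displaced 5 nM FITC-Bim from 15 nM MCL-1 over 1 h at room temperature. Ki was derived from the fitted IC50 using the Nikolovska-Coleska equation, with percent inhibition normalized to DMSO and positive controls.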

H929 cells = test: Cell viability assay (H929 10 FBS); assay type: cell-based; details: Homo sapiens, NCI-H929, 24 hours, read-out: H929_10FBS IC50
Method in brief: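 ATP-based luminescence (CellTiter-Glo or ATPlite 1 Step, 30-60 min at RT) gauged viability of H929 myeloma cells after 24 h compound treatment at 37 °C. Cells plated at 4000 per well in 10% FBS RPMI 1640 supplemented with pyruvate, HEPES and glucose.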

Sequence of MCL-1 (Q07820 whole entry): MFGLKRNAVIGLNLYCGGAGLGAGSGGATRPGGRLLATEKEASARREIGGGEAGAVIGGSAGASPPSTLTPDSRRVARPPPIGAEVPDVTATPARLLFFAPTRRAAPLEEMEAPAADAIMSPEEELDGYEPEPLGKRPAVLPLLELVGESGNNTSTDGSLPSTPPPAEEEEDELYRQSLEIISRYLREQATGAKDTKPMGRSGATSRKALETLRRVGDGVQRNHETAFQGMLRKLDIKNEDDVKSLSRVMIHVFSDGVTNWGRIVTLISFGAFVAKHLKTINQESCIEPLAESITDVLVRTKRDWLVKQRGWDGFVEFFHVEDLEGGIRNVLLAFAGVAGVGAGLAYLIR

With `CNC(=O)O[C@H]1/C=C/COC(C)(C)C(=O)NS(=O)(=O)c2ccc3c(c2)N(C[C@@H]2CC[C@H]21)C[C@@]1(CCCc2cc(Cl)ccc21)CO3` [Example 50, [(3R,6R,7S,8E,22S)-6′-Chloro-12,12-dimethyl-13,15,15-trioxo-spiro[11,20-dioxa-15-thia-1,14-diazatetracyclo[14.7.2.03,6.019,24]pentacosa-8,16,18,24-tetraene-22,1′-tetralin]-7-yl] N-methylcarbamate] the Ki (MCL-1; class symbols) was < 1 nM and the IC50 (H929 cells) was < 500 nM.

In the case of `CC(=O)NS(=O)(=O)c1ccc2c(c1)N(Cc1cnn(C)c1)CC1(CCCc3cc(Cl)ccc31)CO2` (stereo not shown) [Example 9, N-[6′-Chloro-5-[(1-methylpyrazol-4-yl)methyl]spiro[2,4-dihydro-1,5-benzoxazepine-3,1′-tetralin]-7-yl]sulfonylacetamide], the Ki (MCL-1; numeric values) is reported as 1640 nM and the IC50 (H929 cells) is reported as > 1000 nM.

In the case of `COC1CN(C(=O)CO[C@H]2/C=C/COC(C)(C)C(=O)NS(=O)(=O)c3ccc4c(c3)N(C[C@@H]3CC[C@H]32)C[C@@]2(CCCc3cc(Cl)ccc32)CO4)C1` [Example 280, (3R,6R,7S,8E,22S)-6′-Chloro-7-[2-(3-methoxyazetidin-1-yl)-2-oxo-ethoxy]-12,12-dimethyl-15,15-dioxo-spiro[11,20-dioxa-15-thia-1,14-diazatetracyclo[14.7.2.03,6.019,24]pentacosa-8,16,18,24-tetraene-22,1′-tetralin]-13-one], the Ki (MCL-1; class symbols) is reported as < 1 nM and the IC50 (H929 cells) is reported as < 500 nM.

For `CO[C@@H]1/C=C/CN(C(C)=O)[C@H](C)C(=O)NS(=O)(=O)c2ccc3c(c2)N(C[C@@H]2CC[C@H]21)C[C@@]1(CCCc2cc(Cl)ccc21)CO3` [Example 133, (3R,6R,7R,8E,12R,22S)-6′-Chloro-7-methoxy-11-acetyl-12-methyl-15,15-dioxo-spiro[20-oxa-15-thia-1,11,14-triazatetracyclo[14.7.2.03,6.019,24]pentacosa-8,16(25),17,19(24)-tetraene-22,1′-tetralin]-13-one], the Ki (MCL-1; class symbols) was 1 to 100 nM and the IC50 (H929 cells) was > 1000 nM.

For `CC1(C)CN(C(=O)O[C@H]2/C=C/COC(C)(C)C(=O)NS(=O)(=O)c3ccc4c(c3)N(C[C@@H]3CC[C@H]32)C[C@@]2(CCCc3cc(Cl)ccc32)CO4)CCO1` [Example 158, [(3R,6R,7S,8E,22S)-6′-Chloro-12,12-dimethyl-13,15,15-trioxo-spiro[11,20-dioxa-15-thia-1,14-diazatetracyclo[14.7.2.03,6.019,24]pentacosa-8,16,18,24-tetraene-22,1′-tetralin]-7-yl] 2,2-dimethylmorpholine-4-carboxylate], the Ki (MCL-1; class symbols) was < 1 nM and the IC50 (H929 cells) was < 500 nM.

With `COCCOC[C@@H]1CC/C=C/[C@@H](OC)[C@@H]2CC[C@H]2CN2C[C@@]3(CCCc4cc(Cl)ccc43)COc3ccc(cc32)S(=O)(=O)NC1=O` [Example 97, (3R,6R,7R,8E,12S,22S)-6′-Chloro-12-((2-methoxyethoxy)methyl)-7-methoxy-15,15-dioxo-spiro[20-oxa-15-thia-1,14-diazatetracyclo[14.7.2.03,6.019,24]pentacosa-8,16,18,24-tetraene-22,1′-tetralin]-13-one] the Ki (MCL-1; class symbols) was < 1 nM and the IC50 (H929 cells) was > 1000 nM.

`CN([C@H]1/C=C/COC(C)(C)C(=O)NS(=O)(=O)c2ccc3c(c2)N(C[C@@H]2CC[C@H]21)C[C@@]1(CCCc2cc(Cl)ccc21)CO3)S(C)(=O)=O` [Example 256, N-Methyl-N-[(3R,6R,7S,8E,22S)-6′-chloro-12,12-dimethyl-13,15,15-trioxo-spiro[11,20-dioxa-15-thia-1,14-diazatetracyclo[14.7.2.03,6.019,24]pentacosa-8,16(25),17,19(24)-tetraene-22,1′-tetralin]-7-yl]methanesulfonamide] was tested, and the Ki (MCL-1; class symbols) was 1 to 100 nM and the IC50 (H929 cells) was > 1000 nM.

In the case of `CO[C@H]1/C=C/CN(C)C(C)(C)C(=O)NS(=O)(=O)c2ccc3c(c2)N(C[C@@H]2CC[C@H]21)C[C@@]1(CCCc2cc(Cl)ccc21)CO3` [Example 137, (3R,6R,7S,8E,22S)-6′-Chloro-7-methoxy-11,12,12-trimethyl-15,15-dioxo-spiro[20-oxa-15-thia-1,11,14-triazatetracyclo[14.7.2.03,6.019,24]pentacosa-8,16,18,24-tetraene-22,1′-tetralin]-13-one], the Ki (MCL-1; class symbols) is reported as 1 to 100 nM and the IC50 (H929 cells) is reported as < 1000 nM.

For `CC1(C)OC/C=C\[C@H](O)[C@@H]2CC[C@H]2CN2C[C@@]3(CCCc4cc(Cl)ccc43)COc3ccc(cc32)S(=O)(=O)NC1=O` [Example 33, (3R,6R,7S,8Z,22S)-6′-Chloro-7-hydroxy-12,12-dimethyl-15,15-dioxo-spiro[11,20-dioxa-15-thia-1,14-diazatetracyclo[14.7.2.03,6.019,24]pentacosa-8,16,18,24-tetraene-22,1′-tetralin]-13-one], the Ki (MCL-1; class symbols) was < 1 nM and the IC50 (H929 cells) was < 500 nM.

With `CN(C)[C@@H]1CCN(C(=O)O[C@H]2/C=C/COC(C)(C)C(=O)NS(=O)(=O)c3ccc4c(c3)N(C[C@@H]3CC[C@H]32)C[C@@]2(CCCc3cc(Cl)ccc32)CO4)C1` [Example 53, [(3R,6R,7S,8E,22S)-6′-Chloro-12,12-dimethyl-13,15,15-trioxo-spiro[11,20-dioxa-15-thia-1,14-diazatetracyclo[14.7.2.03,6.019,24]pentacosa-8,16,18,24-tetraene-22,1′-tetralin]-7-yl] (3R)-3-(dimethylamino)pyrrolidine-1-carboxylate] the Ki (MCL-1; class symbols) was < 1 nM and the IC50 (H929 cells) was < 500 nM.

For `CN(C(=O)O[C@H]1/C=C/COC(C)(C)C(=O)NS(=O)(=O)c2ccc3c(c2)N(C[C@@H]2CC[C@H]21)C[C@]1(CO3)OCCc2cc(Cl)ccc21)[C@@H]1CCOC1` [Example 299, [(3R,6R,7S,8E,22R)-6′-Chloro-12,12-dimethyl-13,15,15-trioxo-spiro[11,20-dioxa-15-thia-1,14-diazatetracyclo[14.7.2.03,6.019,24]pentacosa-8,16,18,24-tetraene-22,1′-isochromane]-7-yl] N-methyl-N-[(3R)-tetrahydrofuran-3-yl]carbamate], the Ki (MCL-1; class symbols) was < 1 nM and the IC50 (H929 cells) was < 1000 nM.

With `CO[C@H]1/C=C/C[C@H](C)CC(=O)NS(=O)(=O)c2ccc3c(c2)N(C[C@@H]2CC[C@H]21)C[C@@]1(CCCc2cc(Cl)ccc21)CO3` [Example 82, (3R,6R,7S,8E,11S,22S)-6′-Chloro-7-methoxy-11-methyl-15,15-dioxo-spiro[20-oxa-15-thia-1,14-diazatetracyclo[14.7.2.03,6.019,24]pentacosa-8,16(25),17,19(24)-tetraene-22,1′-tetralin]-13-one] the Ki (MCL-1; class symbols) was 1 to 100 nM and the IC50 (H929 cells) was > 1000 nM.

In the case of `C[C@H]1CN(C(=O)O[C@H]2/C=C/COC(C)(C)C(=O)NS(=O)(=O)c3ccc4c(c3)N(C[C@@H]3CC[C@H]32)C[C@@]2(CCCc3cc(Cl)ccc32)CO4)CCN1` [Example 176, [(3R,6R,7S,8E,22S)-6′-Chloro-12,12-dimethyl-13,15,15-trioxo-spiro[11,20-dioxa-15-thia-1,14-diazatetracyclo[14.7.2.03,6.019,24]pentacosa-8,16,18,24-tetraene-22,1′-tetralin]-7-yl] (3S)-3-methylpiperazine-1-carboxylate], the Ki (MCL-1; class symbols) is reported as < 1 nM and the IC50 (H929 cells) is reported as < 500 nM.

In the case of `CC1(C)OC/C=C/[C@H](OC(=O)N2CCN3CCOC[C@H]3C2)[C@@H]2CC[C@H]2CN2C[C@@]3(CCCc4cc(Cl)ccc43)COc3ccc(cc32)S(=O)(=O)NC1=O` [Example 171, [(3R,6R,7S,8E,22S)-6′-Chloro-12,12-dimethyl-13,15,15-trioxo-spiro[11,20-dioxa-15,6-thia-1,14-diazatetracyclo[14.7.2.03,6.019,24]pentacosa-8,16,18,24-tetraene-22,1′-tetralin]-7-yl](9aS)-3,4,6,7,9,9a-hexahydro-1H-pyrazino[2,1-c][1,4]oxazine-8-carboxylate], the Ki (MCL-1; class symbols) is reported as < 1 nM and the IC50 (H929 cells) is reported as < 500 nM.

In the case of `CC1(C)OC/C=C/[C@H](O)[C@@H]2CC[C@H]2CN2C[C@]3(COc4ccc(cc42)S(=O)(=O)NC1=O)OCCc1cc(Cl)ccc13` [Example 249, (3R,6R,7S,8E,22R)-6′-Chloro-7-hydroxy-12,12-dimethyl-15,15-dioxo-spiro[11,20-dioxa-15-thia-1,14-diazatetracyclo[14.7.2.03,6.019,24]pentacosa-8,16,18,24-tetraene-22,1′-isochromane]-13-one], the Ki (MCL-1; class symbols) is reported as 1 to 100 nM and the IC50 (H929 cells) is reported as > 1000 nM.

`CN(C(=O)O[C@H]1/C=C/CN(C)C2(CCC2)C(=O)NS(=O)(=O)c2ccc3c(c2)N(C[C@@H]2CC[C@H]21)C[C@@]1(CCCc2cc(Cl)ccc21)CO3)[C@H]1CCOC1` [Example 241, [(3R,6R,7S,8E,22S)-6′-Chloro-11-methyl-12,12-(1,3-propylene)-13,15,15-trioxo-spiro[20-oxa-15-thia-1,11,14-triazatetracyclo[14.7.2.03,6.019,24]pentacosa-8,16,18,24-tetraene-22,1′-tetralin]-7-yl] N-methyl-N-[(3S)-tetrahydrofuran-3-yl]carbamate] was tested, and the Ki (MCL-1; class symbols) was < 1 nM and the IC50 (H929 cells) was < 500 nM.

`C[C@@H]1CN(C(=O)O[C@H]2/C=C/COC(C)(C)C(=O)NS(=O)(=O)c3ccc4c(c3)N(C[C@@H]3CC[C@H]32)C[C@@]2(CCCc3cc(Cl)ccc32)CO4)CCN1` [Example 175, [(3R,6R,7S,8E,22S)-6′-Chloro-12,12-dimethyl-13,15,15-trioxo-spiro[11,20-dioxa-15-thia-1,14-diazatetracyclo[14.7.2.03,6.019,24]pentacosa-8,16,18,24-tetraene-22,1′-tetralin]-7-yl] (3R)-3-methylpiperazine-1-carboxylate] was tested, and the Ki (MCL-1; class symbols) was < 1 nM and the IC50 (H929 cells) was < 500 nM.
